Experiments:
rat Nav1.4 α-subunit [1] = molecular target: T1, rat Nav1.4 α-subunit (Rattus norvegicus, UniProt P15390); assay: whole-cell patch clamp, peak INa; assay type: cell-based
rat Nav1.4 α-subunit [2] = molecular target: T1, rat Nav1.4 α-subunit; assay: whole-cell patch clamp, peak INa; assay type: cell-based; remark: listed apart in the source

T1 sequence (P15390 whole entry): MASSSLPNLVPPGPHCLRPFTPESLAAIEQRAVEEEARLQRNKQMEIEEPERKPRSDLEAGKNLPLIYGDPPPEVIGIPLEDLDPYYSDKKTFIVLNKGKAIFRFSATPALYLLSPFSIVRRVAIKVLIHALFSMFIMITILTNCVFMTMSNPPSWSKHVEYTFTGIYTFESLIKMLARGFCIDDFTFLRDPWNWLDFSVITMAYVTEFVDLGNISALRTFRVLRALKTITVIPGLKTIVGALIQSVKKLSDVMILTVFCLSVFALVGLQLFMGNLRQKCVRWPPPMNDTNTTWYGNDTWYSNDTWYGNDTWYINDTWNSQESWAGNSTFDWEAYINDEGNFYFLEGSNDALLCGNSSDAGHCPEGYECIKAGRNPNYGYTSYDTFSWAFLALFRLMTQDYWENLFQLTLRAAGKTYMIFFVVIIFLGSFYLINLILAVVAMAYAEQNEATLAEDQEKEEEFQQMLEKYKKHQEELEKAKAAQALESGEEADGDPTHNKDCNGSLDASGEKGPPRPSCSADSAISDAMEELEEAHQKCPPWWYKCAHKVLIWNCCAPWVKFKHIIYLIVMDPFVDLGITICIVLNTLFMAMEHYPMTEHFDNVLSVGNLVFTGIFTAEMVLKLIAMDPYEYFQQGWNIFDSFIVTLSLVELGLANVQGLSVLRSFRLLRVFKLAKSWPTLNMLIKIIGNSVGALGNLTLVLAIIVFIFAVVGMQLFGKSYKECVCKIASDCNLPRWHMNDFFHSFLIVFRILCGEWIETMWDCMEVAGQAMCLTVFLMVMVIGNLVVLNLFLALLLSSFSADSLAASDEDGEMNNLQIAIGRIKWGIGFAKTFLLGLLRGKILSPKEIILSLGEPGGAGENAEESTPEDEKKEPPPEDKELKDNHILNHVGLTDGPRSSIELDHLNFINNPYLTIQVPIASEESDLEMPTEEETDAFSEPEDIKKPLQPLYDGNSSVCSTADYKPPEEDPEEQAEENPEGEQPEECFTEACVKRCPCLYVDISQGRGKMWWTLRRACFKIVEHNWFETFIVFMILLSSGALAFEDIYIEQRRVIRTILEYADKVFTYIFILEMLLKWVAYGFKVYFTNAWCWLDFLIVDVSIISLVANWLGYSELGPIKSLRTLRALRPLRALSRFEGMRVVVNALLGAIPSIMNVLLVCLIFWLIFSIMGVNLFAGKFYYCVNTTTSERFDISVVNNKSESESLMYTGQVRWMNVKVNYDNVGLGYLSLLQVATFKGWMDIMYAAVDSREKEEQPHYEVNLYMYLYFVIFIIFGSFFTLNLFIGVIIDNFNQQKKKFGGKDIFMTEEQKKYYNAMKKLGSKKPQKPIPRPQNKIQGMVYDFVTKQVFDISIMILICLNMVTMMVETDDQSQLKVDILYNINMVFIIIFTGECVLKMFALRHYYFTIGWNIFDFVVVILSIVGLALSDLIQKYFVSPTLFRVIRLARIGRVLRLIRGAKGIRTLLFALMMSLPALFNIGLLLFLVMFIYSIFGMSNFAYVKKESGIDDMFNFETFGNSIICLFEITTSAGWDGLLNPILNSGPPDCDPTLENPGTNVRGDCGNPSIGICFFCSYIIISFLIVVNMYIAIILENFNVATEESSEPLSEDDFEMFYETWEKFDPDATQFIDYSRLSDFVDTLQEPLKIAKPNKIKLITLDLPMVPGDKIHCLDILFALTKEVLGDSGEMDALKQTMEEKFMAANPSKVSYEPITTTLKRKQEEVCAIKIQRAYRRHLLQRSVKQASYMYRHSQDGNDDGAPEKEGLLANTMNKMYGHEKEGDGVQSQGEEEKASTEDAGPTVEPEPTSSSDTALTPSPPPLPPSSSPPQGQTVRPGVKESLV

**Q.** How did the inhibition at 820 µM (rat Nav1.4 α-subunit [1]; read-out: % inhibition at 0.82 mM) turn out when FC(F)OC(F)(F)C(F)Cl (centres unmarked) [enflurane] was run?
**A.** Its inhibition at 820 µM is 32 ± 6.7%.

**Q.** For FCOC(C(F)(F)F)C(F)(F)F [sevoflurane], which inhibition at 440 µM (rat Nav1.4 α-subunit [1]; read-out: % inhibition at 0.44 mM) is on record?
**A.** Its inhibition at 440 µM is 17 ± 3.3%.

**Q.** With FC(F)OC(Cl)C(F)(F)F (centres unmarked) [isoflurane] as the compound, how does the inhibition at 460 µM (rat Nav1.4 α-subunit [1]; read-out: % inhibition at 0.46 mM) read?
**A.** Its inhibition at 460 µM is 19 ± 1.9%.

**Q.** What about the IC50 (rat Nav1.4 α-subunit [2]) of the same compound?
**A.** The IC50 was 1160 µM.

**Q.** Which inhibition at 420 µM (rat Nav1.4 α-subunit [1]; read-out: % inhibition at 0.42 mM) does the source give for FC(F)(F)C(Cl)Br (centres unmarked) [halothane] here?
**A.** Its inhibition at 420 µM is 32 ± 3.5%.
